# Target: T1, SNF1LK2 (Homo sapiens, UniProt Q9H0K1)
# T1 construct: purchased Thermo Fisher Scientific (Life Technologies) SelectScreen
# Test: SelectScreen Z'LYTE
# Format: biochemical
# How it was run: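 NU5455 was profiled across the SelectScreen Broad panel of kinase activity and binding assays. Z'LYTE reactions such as CSF1R ran at apparent Km ATP, while the Adapta CAMK1 assay used ATP listed as 10. Values are given as percent.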
# T1 sequence (Q9H0K1 whole entry): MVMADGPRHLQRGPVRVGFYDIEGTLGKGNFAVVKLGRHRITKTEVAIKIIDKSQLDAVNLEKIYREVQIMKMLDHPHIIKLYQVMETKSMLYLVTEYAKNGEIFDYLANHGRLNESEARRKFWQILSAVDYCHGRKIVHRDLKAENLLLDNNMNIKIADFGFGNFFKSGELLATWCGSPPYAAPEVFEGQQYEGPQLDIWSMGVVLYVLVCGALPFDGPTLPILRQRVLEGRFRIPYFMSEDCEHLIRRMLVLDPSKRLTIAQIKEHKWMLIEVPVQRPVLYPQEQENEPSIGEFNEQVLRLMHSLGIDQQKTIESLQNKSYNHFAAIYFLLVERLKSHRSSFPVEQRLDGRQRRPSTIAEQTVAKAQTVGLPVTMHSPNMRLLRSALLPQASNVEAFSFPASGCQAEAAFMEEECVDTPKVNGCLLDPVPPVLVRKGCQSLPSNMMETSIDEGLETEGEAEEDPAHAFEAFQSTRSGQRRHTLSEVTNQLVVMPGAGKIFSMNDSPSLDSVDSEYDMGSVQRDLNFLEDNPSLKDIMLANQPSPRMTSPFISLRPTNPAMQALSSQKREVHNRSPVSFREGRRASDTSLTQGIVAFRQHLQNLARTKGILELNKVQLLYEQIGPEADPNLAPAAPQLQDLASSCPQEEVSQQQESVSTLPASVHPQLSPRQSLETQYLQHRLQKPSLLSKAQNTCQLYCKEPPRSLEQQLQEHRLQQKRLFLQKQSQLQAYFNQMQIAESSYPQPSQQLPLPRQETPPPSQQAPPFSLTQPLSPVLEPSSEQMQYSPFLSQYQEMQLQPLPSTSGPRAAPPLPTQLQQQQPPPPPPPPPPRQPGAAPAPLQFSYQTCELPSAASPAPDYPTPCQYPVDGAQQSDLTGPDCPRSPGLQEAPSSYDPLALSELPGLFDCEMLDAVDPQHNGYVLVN
smiles,measurement,value
CN(C(=O)CN1CCOCC1)c1ccc2sc3c(-c4cccc5c(=O)cc(N6CC7CCC(C6)O7)oc45)cccc3c2c1 [NU5455],inhibition at 1 µM,26.6%
